# Measurements reported in patent US20110195929A1, “COMPOUNDS FOR THE TREATMENT OF FLAVIVIRAL INFECTIONS” (SUMMIT CORPORATION PLC, priority 2008, published 2011).
# Test system: HCV
# Test: Cell-based HCV infection NS3 protease FRET assay in DMSO-Huh7 cells; further: test concentration or dose not given here
# Design: species or system hepatitis C virus (HCV)
# Settings: not given
row,SMILES,Ave % inhibition
1,"C[C@@H]1CC[C@@H]2[C@@H](O)[C@H](O)[C@@H](CO)N12 [Compound 14, (1R,2R,3R,5R,7aR)-3-(hydroxymethyl)-5-methylhexahydro-1H-pyrrolizine-1,2-diol]",+ (+: ≦19%)
2,"[O-][N@@+]12C[C@H](O)[C@H](O)[C@@H]1[C@@H](O)[C@H](O)[C@@H]2CO [Compound 81, (1R,2R,3S,4R,6S,7R,7aR)-1,2,6,7-tetrahydroxy-3-(hydroxymethyl)octahydropyrrolizine 4-oxide]",++ (++: 20-39%)
3,"C[C@H]1C[C@@H](O)[C@@H]2[C@H](O)[C@H](O)[C@@H](CO)N21 [Compound 149, (1S,2R,3R,5S,7R,7aR)-3-(hydroxymethyl)-5-methylhexahydro-1H-pyrrolizine-1,2,7-triol]",++ (++: 20-39%)
4,"OC[C@@H](O)[C@@H]1NC[C@H](O)[C@@H]1O [Compound 155, (2S,3R,4S)-2-((S)-1,2-dihydroxyethyl)pyrrolidine-3,4-diol]",++ (++: 20-39%)
5,"O=C(O)[C@H]1C[C@H](O)CN1 [Compound 477, trans-4-Hydroxy-D-proline]",+ (+: ≦19%)

# Same assay, conditions: DMSO-Huh7 cells infected with HCV at 0.05 ffu/cell; HCV NS3 protein levels by FRET, day 6 p.i.
row,SMILES,Ave % inhibition
1,"OC[C@H]1N[C@H](CO)[C@@H](O)[C@H](O)[C@H]1O [Compound 15, (2R,3S,4R,5R,6R)-2,6-bis(hydroxymethyl)piperidine-3,4,5-triol]",++ (++: 20-39%)
2,"CCCC(=O)O[C@H]1CN2CC[C@H](O)C2[C@@H](O)[C@@H]1O (stereo partly drawn) [Compound 46, (1S,6S,7S,8R)-1,7,8-trihydroxyoctahydroindolizin-6-yl butyrate]",++ (++: 20-39%)
3,"CC[C@@H]1NC[C@@H](O)[C@H](O)[C@H]1O [Compound 72, (2S,3S,4S,5R)-2-ethylpiperidine-3,4,5-triol]",++ (++: 20-39%)
4,"O=C(O)[C@@]1(O)CNC[C@@H](O)[C@H]1O [Compound 87, (3R,4R,5R)-3,4,5-trihydroxypiperidine-3-carboxylic acid]",+++ (+++: 40-59%)
5,"CCCCN1C[C@H](O)[C@@H](O)[C@H](O)[C@H]1CO [Compound 118, (2R,3R,4R,5S)-1-butyl-2-(hydroxymethyl)piperidine-3,4,5-triol]",++ (++: 20-39%)
6,"C[C@H]1N[C@@H](CO)[C@H](O)[C@H]1O [Compound 119, (2S,3S,4S,5R)-2-(hydroxymethyl)-5-methylpyrrolidine-3,4-diol]",++ (++: 20-39%)
7,"CCCC(=O)OC[C@@H]1[C@@H](OC(=O)CCC)[C@H](OC(=O)CCC)[C@H]2[C@H](OC(=O)CCC)[C@@H](OC(=O)CCC)CN21 [Compound 132, (1R,2R,3R,6S,7S,7aR)-3-(butyryloxymethyl)hexahydro-1H-pyrrolizine-1,2,6,7-tetrayl tetrabutyrate]",++ (++: 20-39%)
8,"CC(=O)OC[C@H]1[C@@H](OC(C)=O)[C@H](OC(C)=O)[C@H]2[C@H](OC(C)=O)[C@@H](OC(C)=O)CN21 [Compound 136, (1R,2R,3S,6S,7S,7aR)-3-(acetoxymethyl)hexahydro-1H-pyrrolizine-1,2,6,7-tetrayl tetraacetate]",++ (++: 20-39%)
9,"CC(=O)OC[C@H]1[C@@H](OC(C)=O)[C@H](OC(C)=O)[C@H]2[C@@H](OC(C)=O)[C@@H](OC(C)=O)CN21 [Compound 144, (1R,2R,3S,6S,7R,7aR)-3-(acetoxymethyl)hexahydro-1H-pyrrolizine-1,2,6,7-tetrayl tetraacetate]",++ (++: 20-39%)
10,"OCCN1C[C@@H](O)[C@@H](O)[C@H]1[C@H](O)CO [Compound 145, (2R,3S,4R)-2-((S)-1,2-dihydroxyethyl)-1-(2-hydroxyethyl)pyrrolidine-3,4-diol]",+++ (+++: 40-59%)
11,"O[C@@H]1[C@@H]2[C@@H](O)CCCN2C[C@@H]1O [Compound 153, (1R,2S,8S,8aS)-octahydroindolizine-1,2,8-triol]",++ (++: 20-39%)
12,"CCCCN1C[C@H](O)[C@H](O)[C@@H]1CO [Compound 162, (2S,3R,4S)-1-butyl-2-(hydroxymethyl)pyrrolidine-3,4-diol]",++ (++: 20-39%)
13,"CCCCN1C[C@@H](N=[N+]=[N-])C[C@H]1CO [Compound 275, ((2S,4S)-4-azido-1-butylpyrrolidin-2-yl)methanol]",++ (++: 20-39%)
14,"CCCCCCCCCN1C[C@@H](O)[C@@H](O)[C@@H]1[C@@H](O)CO [Compound 316, (2S,3S,4R)-2-((R)-1,2-dihydroxyethyl)-1-nonylpyrrolidine-3,4-diol]",+++ (+++: 40-59%)
15,"CCCCCCCCCN1C[C@H](NC(C)=O)[C@@H](O)[C@@H]1CO [Compound 338, N-((3S,4R,5S)-4-hydroxy-5-(hydroxymethyl)-1-nonylpyrrolidin-3-yl)acetamide]",++ (++: 20-39%)
16,"CCCCCCCCCN1C[C@@H](NC(C)=O)C[C@H]1CO [Compound 348, N-((3S,5S)-5-(hydroxymethyl)-1-nonylpyrrolidin-3-yl)acetamide]",++++ (++++: 60-79%)
17,"CCCCCCCCCN1C[C@H](O)[C@H](O)[C@@H]1[C@@H](O)[C@H](O)CO [Compound 404, (1R,2R)-1-((2R,3R,4S)-3,4-dihydroxy-1-nonylpyrrolidin-2-yl)propane-1,2,3-triol]",+++ (+++: 40-59%)
18,"CCCCCCCCCN1C[C@@H](O)[C@@H](O)[C@@H]1[C@H](O)CO [Compound 427, (2S,3S,4R)-2-((S)-1,2-dihydroxyethyl)-1-nonylpyrrolidine-3,4-diol]",+++ (+++: 40-59%)
19,"CC1(C)O[C@H]2[C@H](CN(Cc3ccccc3)[C@@H]2CN)O1 [Compound 483, ((3aR,4R,6aS)-5-benzyl-2,2-dimethyltetrahydro-3aH-[1,3]dioxolo[4,5-c]pyrrol-4-yl)methanamine]",++ (++: 20-39%)
20,"O=C(O)CCCN1C[C@@H](O)[C@H](O)[C@H]1CO [Compound 499, 4-[(2R,3R,4R)-3,4-dihydroxy-2-(hydroxymethyl)pyrrolidin-1-yl]butanoic acid]",++ (++: 20-39%)
21,"OC[C@H]1[C@H](O)[C@@H](O)CN1Cc1ccccc1 [Compound 500, (2S,3S,4S)-1-benzyl-2-(hydroxymethyl)pyrrolidine-3,4-diol]",++ (++: 20-39%)
22,"C[C@@]1(C(=O)O)NC[C@H](O)[C@H]1O [Compound 504, (2R,3S,4S)-3,4-dihydroxy-2-methylpyrrolidine-2-carboxylic acid]",++ (++: 20-39%)
23,"[N-]=[N+]=NC[C@H]1[C@@H](O)[C@@H](O)CN1Cc1ccccc1 [Compound 506, (2S,3R,4S)-2-(azidomethyl)-1-benzylpyrrolidine-3,4-diol]",+++ (+++: 40-59%)
24,"CC(=O)NC[C@@H]1[C@@H](O)[C@@H](O)CN1CCCCCCCCCO [Compound 511, N-(((2R,3R,4S)-3,4-dihydroxy-1-(9-hydroxynonyl)pyrrolidin-2-yl)methyl)acetamide]",++ (++: 20-39%)
25,"CCCCCCCCCN1C[C@H](O)[C@H](O)[C@H]1CNC(C)=O [Compound 512, N-(((2R,3R,4S)-3,4-dihydroxy-1-nonylpyrrolidin-2-yl)methyl)acetamide]",+++ (+++: 40-59%)
26,"O=C(O)CN1C[C@H](O)[C@H](O)[C@@H]1[C@@H](O)[C@H](O)[C@H](O)CO [Compound 530, 2-((2R,3R,4S)-3,4-dihydroxy-2-((1R,2S,3R)-1,2,3,4-tetrahydroxybutyl)pyrrolidin-1-yl)acetic acid]",++ (++: 20-39%)
